From US20120322813A1, “RUTAECARPINE DERIVATIVES FOR TREATING CAFFEINE TOXICITY” (priority 2011, published 2012)

Test system: CYP1A2
Assay: MEROD assay in live Hepa1c1c7 cells incubated with test compound (CYP1A2 induction)
Type: cell-based, mouse
Conditions: live Hepa1c1c7 cells incubated with 10 μM compound
Source text: FIG. 1 illustrates how caffeine is primarily metabolized to paraxanthine via CYP1A2 enzyme in a human, according to some embodiments. The MEROD (methoxyresorufin-O-demethylase) assay measures the activity of the enzyme (CYP1A2) that converts methoxyresorufin (probe substrate) to resorufin (demethylation) in the presence of NADPH. The resulting resorufin concentration can be measured using a fluorescence reader by setting the excitation and emission wavelengths at 544 and 590 nm, respectively.
For MEROD assay in live cells, Hepa1c1c7 cells were cultured in either 6-well or 24-well-plates. For the 24-well plate experiment, after confluent cells were incubated for approximately 20 hours with either resorufin, nitro-resorufin, chloro-resorufin, 3-MC or DMSO (in triplicates), culture media was removed and 180 μL fresh culture media containing […] methoxyresorufin was added per well. After 1 hour incubation at 37° C., […] aliquot was taken from each well and the formation of resorufin was measured by fluorescence. […] After 5 hours incubation at 37° C., 100 μL aliquot was taken from each well, centrifuged at 12,000 g at RT for ˜5 min and the supernatants were placed into wells of a 96-well fluorescence plate and the formation of resorufin was measured by fluorescence.

formation of resorufin (MEROD): no marked difference
Compound: O=c1c2ccc(Cl)cc2nc2n1CCc1c-2[nH]c2ccccc12 [chloro-rutaecarpine]
